Molecules are shown by their SMILES.

In data set [1] the test system is MPAEpiC, RAW264.7, FL83B, TKPTS, and HL-1 cells. Description: Cell viability assay in normal cell lines. The class given is cell-based, mouse. Particulars: for Cell growth (cell viability) at lower doses: co-treated with LPS, MTOB 5 mM, NSC95397 10 µM, C646 3 µM, A-485 5 nM, TPCA1 150 nM, BOT64 1 µM; for Cell growth (cell viability assay): assessed every 24 h for 5 days. The source says:
Mouse pulmonary alveolar epithelial cells (MPAEpiC) were sourced from ScienCell Research Laboratories (Carlsbad, CA, USA; #M3200-57). The mouse macrophage cell line RAW 264.7 (#TIB-71), the mouse liver hepatocyte cell line FL83B (#CRL-2390), and the mouse kidney epithelial-like cell line TKPTS (#CRL-3361) were sourced from the American Type Culture Collection (ATCC) (Manassas, VA, USA). Additionally, the mouse cardiac muscle cell line HL-1 (SCC065) was acquired from Sigma-Aldrich. All cell lines were maintained in Dulbecco’s Modified Eagle Medium (DMEM) (Thermo Fisher; #A1048901) fortified with 10% fetal bovine serum (FBS) (Thermo Fisher; #A5256701) and a combination of 100 U/mL penicillin and streptomycin (Thermo Fisher; #15,140,122). Cells were cultured in a 37 °C incubator with 5% CO2, and the medium was changed every 2–3 days. For targeted gene manipulation, cells were transfected with gene-specific short hairpin RNAs (shRNAs) (Table S1) or plasmids (Table S2). Transfection was facilitated using the Lipofectamine 3000 Transfection Reagent (Thermo Fisher; #L3000001) as per the manufacturer’s recommended protocol.
(§1) For LPS treatment, different knockdown (KD) cell lines—Control^KD, CtBP2^KD, p300^KD, and p65^KD, all derived from MPAEpiC—were seeded in 12-well plates and cultured at 37 °C until reaching 80% confluence. The cells were then treated with 200 ng/mL of LPS for 6 h, washed three times with PBS, and subjected to the required experiments. For experiments involving inhibitors of CtBP2, p300, and NF-κB, as well as the compound PNSC928, MPAEpiC, RAW264.7, FL83B, TKPTS, and HL-1 cells were seeded in 12-well plates and cultured at 37 °C to reach 80% confluence. Cells were then cotreated with 200 ng/mL LPS along with varying concentrations of the following chemicals: MTOB (0, 5, 10, or 20 mM), NSC95397 (0, 10, 20, or 40 µM), C646 (0, 3, 6, or 12 µM), A-485 (0, 5, 10, or 20 nM), TPCA1 (0, 150, 300, or 600 nM), BOT64 (0, 1, 2, or 4 µM), or PNSC928 (0, 11.8, 23.6, or 47.2 µM). After 6 h of treatment, cells were washed three times with PBS before proceeding with further experiments.
Fig. 5 Determination of PNSC928 cytotoxicity and evaluation of PNSC928 effects on the expression levels of CtBP2/p300/NF-κB target genes. (A-E) Cell viability assessment. Five cell lines, including MPAEpiC (A), RAW264.7 (B), FL83B (C), TKPTS (D), and HL-1 (E) were treated with varying concentrations of PNSC928 ([…]). Cell viability was assessed every 24 h for 5 days. (F-I) Effects of PNSC928 on gene expression levels. The RAW264.7 cells were co-treated with LPS and PNSC928 (23.6 and 47.2 µM) for a duration of 6 h. Subsequently, RNA isolation and RT-qPCR analysis were performed to quantify mRNA levels of various genes. (F) The mRNA levels of IL-1B, IL-6, IL-15, IL-18, TNFA, and IFNG. (G) The mRNA levels of CDH1, CDKN1A, CDKN2A, CHRD, PAX6, and BAX. (H) The mRNA levels of NOD2, CCL2, CXCL10, CXCL12, MMP1, and STAT1 mRNA levels, (I) The mRNA levels of MIP2, CCR5, GM-CSF, COX2, and iNOS. n = 3 for each experiment. ns: no significant difference. **P < 0.01; ***P < 0.001
Five cell lines (MPAEpiC, RAW264.7, FL83B, TKPTS, and HL-1) were treated with MTOB (5 and 10 mM), NSC95397 (10 and 20 μM), C646 (3 and 6 μM), A-485 (5 and 10 nM), TCPA1 (150 and 300 nM), and BOT-64 (1 and 2 μM). Cell viability was assessed every 24 hours for 5 days. n=3 for all experiments. *P<0.05.

Data set [2] relates to MPAEpiC and RAW264.7 cells. The data set is described as follows: RT-qPCR of CtBP2/p300/NF-κB target genes in MPAEpiC and RAW264.7 cells cotreated with LPS and inhibitors. The class given is cell-based, mouse. The note with it: LPS cotreatment, 6 h; for Expression of IL-1B, IL-6, IL-15, IL-18, TNFA, NOD2, CCL2, CXCL10, CXCL12, MMP1, and STAT1 / Expression of other genes under investigation (CtBP2 and NF-κB targets): p300 inhibitors; for Expression levels of IL-1B, IL-6, IL-8, IL-15, TNFA, MIP2, CCR5, GM-CSF, VEGF, COX2, and iNOS / Expression of the other studied genes (CtBP2 and p300 targets): NF-κB inhibitors; for Expression of IL-1B, IL-6, IL-15, IL-18, TNFA, CDH1, CDKN1A, CDKN2A, CHRD, PAX6, and BAX / Expression of the remaining genes (p300 and NF-κB targets): CtBP2 inhibitors. The method, then: as §1
RNA was isolated from both cultured cells and mouse lung tissues utilizing the TRIzol Reagent (Invitrogen; Shanghai, China; #15,596,018) in adherence to the manufacturer’s protocol. For each sample, 500 ng of RNA was employed for the synthesis of complementary DNA (cDNA) leveraging the High-Capacity cDNA Reverse Transcription Kit (Thermo Fisher; #4,368,814). Gene expression quantification was carried out using the SYBR GreenER qPCR SuperMix Universal (Thermo Fisher; #1176202K) in combination with the specific primers delineated in Table S3. Subsequent analysis normalized the expression levels to β-Actin, utilizing the 2^−ΔΔCt method.
The RAW264.7 cells were co-treated with LPS and the following compounds: 5 mM MTOB, 10 μM NSC95397, 3 μM C646, 5 nM A-485, 150 nM TPCA1, or 1 μM BOT64 for a duration of 6 hours. Subsequently, RNA isolation and RT-qPCR analysis were performed to quantify mRNA levels of various genes.
The MPAEpiC cells were co-treated with LPS and the following compounds: 5 mM MTOB, 10 μM NSC95397, 3 μM C646, 5 nM A-485, 150 nM TPCA1, or 1 μM BOT64 for a duration of 6 hours. Subsequently, RNA isolation and RT-qPCR analysis were performed to quantify mRNA levels of various genes.
In general terms: Quantitative PCR measures a nucleic acid by following its amplification.

In the case of `CNC(=O)Nc1ccc2c(c1)CC[C@@]21OC(=O)N(CC(=O)N(Cc2ccc(F)cc2)[C@@H](C)C(F)(F)F)C1=O` [A-485], the “Cell growth (cell viability) at lower doses” value (“Cell growth … at lower doses” for short) in data set [1] was “notable inhibition of cell growth”. In addition, in data set [2], the “Expression of IL-1B, IL-6, IL-15, IL-18, TNFA, NOD2, CCL2, CXCL10, CXCL12, MMP1, and STAT1” value was “significantly modulated”; the “Expression of other genes under investigation (CtBP2 and NF-κB targets)” value is given as “no discernible impact”.

As to `CC1(C)CC(=O)c2sc(=Nc3ccccc3)oc2C1` [BOT64], in data set [1], the “Cell growth … at lower doses” value is on record as “notable inhibition of cell growth”. For the same compound, in data set [2], the “Expression levels of IL-1B, IL-6, IL-8, IL-15, TNFA, MIP2, CCR5, GM-CSF, VEGF, COX2, and iNOS” value was “dose-dependent alteration”; the “Expression of the other studied genes (CtBP2 and p300 targets)” value is “without affecting”.

Regarding `CC1=NN(c2ccc(C(=O)O)cc2)C(=O)/C1=C\c1ccc(-c2cc(C)c(C)cc2[N+](=O)[O-])o1` [C646], the “Cell growth … at lower doses” value in data set [1] is reported as “notable inhibition of cell growth”. Further, in data set [2], the “Expression of IL-1B, IL-6, IL-15, IL-18, TNFA, NOD2, CCL2, CXCL10, CXCL12, MMP1, and STAT1” value is “significantly modulated”; the “Expression of other genes under investigation (CtBP2 and NF-κB targets)” value was “no discernible impact”.

For `CSCCC(=O)C(=O)O` [MTOB], the “Cell growth … at lower doses” value in data set [1] is listed as “notable inhibition of cell growth”. In addition, in data set [2], the “Expression of IL-1B, IL-6, IL-15, IL-18, TNFA, CDH1, CDKN1A, CDKN2A, CHRD, PAX6, and BAX” value was “dose-dependent reversal”; the “Expression of the remaining genes (p300 and NF-κB targets)” value is “remained relatively unchanged”.

For the compound `O=C1C(SCCO)=C(SCCO)C(=O)c2ccccc21` [NSC95397], the “Cell growth … at lower doses” value in data set [1] is given as “notable inhibition of cell growth”. In addition, in data set [2], the “Expression of IL-1B, IL-6, IL-15, IL-18, TNFA, CDH1, CDKN1A, CDKN2A, CHRD, PAX6, and BAX” value was “dose-dependent reversal”; the “Expression of the remaining genes (p300 and NF-κB targets)” value is “remained relatively unchanged”.

With `CC(=CCCC1=CCC(C2COC(=O)C2)OC1O)CCC1=C(C)CCCC1(C)C` (centres unmarked) [PNSC928], the “Cell growth (cell viability assay)” value was “slight inhibition of cell growth” in data set [1] (PNSC928 at 47.2 µM) and “did not inhibit cell growth” in data set [1] (PNSC928 at lower concentrations (≤ 23.6 µM), all tested cell lines).

In the case of `NC(=O)Nc1sc(-c2ccc(F)cc2)cc1C(N)=O` [TPCA1], the “Cell growth … at lower doses” value in data set [1] is “notable inhibition of cell growth”. In data set [2], the “Expression levels of IL-1B, IL-6, IL-8, IL-15, TNFA, MIP2, CCR5, GM-CSF, VEGF, COX2, and iNOS” value was “dose-dependent alteration”; the “Expression of the other studied genes (CtBP2 and p300 targets)” value is reported as “without affecting”.
